Assay results from PubChem BioAssay AID328 (DTP/NCI, 2004).
Values joined by “and” are separate entries in the source; they are usually repeats but may differ in a detail not shown here. Equal values may be shown once. Inconclusive results and toxic doses are left out.

Tested on: BDF1 mice, P388 leukemia ip, median survival T/C
Assay: NCI In Vivo Anticancer Drug Screen. Data for tumor model P388 Leukemia (intraperitoneal) in B6D2F1 (BDF1) mice
Conditions: endpoint: median survival time, higher = longer survival
In short: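 Vehicle-dosed animals serve as the reference; survival of compound-dosed, tumour-implanted mice is divided by it.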

[1] = dose: 6.25 mg/kg/injection, schedule: Q01DX009 (ip), vehicle: saline
[2] = dose: 12.5 mg/kg/injection, schedule: Q04DX003 (ip), vehicle: saline with Tween-80
[3] = dose: 25.0 mg/kg/injection, schedule: Q04DX003 (ip), vehicle: saline with Tween-80
[4] = dose: 50.0 mg/kg/injection, schedule: Q04DX003 (ip), vehicle: saline with Tween-80
[5] = dose: 100.0 mg/kg/injection, schedule: Q01DX009 (ip), vehicle: Klucel (hydroxypropylcellulose) (HPC)
[6] = dose: 200.0 mg/kg/injection, schedule: Q01DX009 (ip), vehicle: Klucel (hydroxypropylcellulose) (HPC)
[7] = dose: 400.0 mg/kg/injection, schedule: Q01DX009 (ip), vehicle: Klucel (hydroxypropylcellulose) (HPC)

Nc1ccc2nc3ccc(N)cc3[n+](-c3ccccc3)c2c1
T/C (dose: 0.12 mg/kg/injection, schedule: Q01DX009 (ip), vehicle: saline): 100 % of control
T/C (dose: 0.25 mg/kg/injection, schedule: Q01DX009 (ip), vehicle: saline): 110 % of control
T/C (dose: 0.5 mg/kg/injection, schedule: Q01DX009 (ip), vehicle: saline): 110 % of control
T/C (dose: 1.0 mg/kg/injection, schedule: Q03HX024 (ip), vehicle: saline): 150 % of control
T/C (dose: 1.13 mg/kg/injection, schedule: Q01DX009 (ip), vehicle: saline): 116 % of control
T/C (dose: 1.56 mg/kg/injection, schedule: Q01DX009 (ip), vehicle: saline): 113 % of control
T/C (dose: 2.0 mg/kg/injection, schedule: Q01DX009 (sc), vehicle: saline): 108 % of control
T/C (dose: 2.0 mg/kg/injection, schedule: Q03HX024 (ip), vehicle: saline): 155 % of control
T/C (dose: 4.0 mg/kg/injection, schedule: Q01DX009 (ip), vehicle: saline): 153 % of control
T/C (dose: 4.0 mg/kg/injection, schedule: Q01DX009 (sc), vehicle: saline): 103 % of control
T/C (dose: 4.0 mg/kg/injection, schedule: Q03HX016 (ip), vehicle: saline): 153 % of control
T/C (dose: 4.0 mg/kg/injection, schedule: Q03HX024 (ip), vehicle: saline): 156 % of control
T/C (dose: 4.0 mg/kg/injection, schedule: Q04DX003 (sc), vehicle: saline): 101 % of control
T/C (dose: 6.0 mg/kg/injection, schedule: Q01DX009 (ip), vehicle: saline): 166 % of control
T/C [1]: 154 % of control
T/C (dose: 8.0 mg/kg/injection, schedule: Q01DX009 (ip), vehicle: saline): 155 % of control and 173 % of control
T/C (dose: 8.0 mg/kg/injection, schedule: Q01DX009 (oral), vehicle: saline): 95 % of control
T/C (dose: 8.0 mg/kg/injection, schedule: Q01DX009 (sc), vehicle: saline): 106 % of control
T/C (dose: 8.0 mg/kg/injection, schedule: Q04DX003 (sc), vehicle: saline): 103 % of control
T/C (dose: 8.0 mg/kg/injection, schedule: Q08DX002 (ip), vehicle: saline): 123 % of control
T/C (dose: 9.0 mg/kg/injection, schedule: Q01DX009 (ip), vehicle: saline): 150 % of control
T/C (dose: 9.3 mg/kg/injection, schedule: Q01DX009 (ip), vehicle: saline): 154 % of control
T/C (dose: 16.0 mg/kg/injection, schedule: Q01DX009 (ip), vehicle: saline): 182 % of control
T/C (dose: 16.0 mg/kg/injection, schedule: Q01DX009 (oral), vehicle: saline): 105 % of control
T/C (dose: 16.0 mg/kg/injection, schedule: Q01DX009 (sc), vehicle: saline): 96 % of control
T/C (dose: 16.0 mg/kg/injection, schedule: Q04DX003 (oral), vehicle: saline): 99 % of control
T/C (dose: 16.0 mg/kg/injection, schedule: Q04DX003 (sc), vehicle: saline): 106 % of control
T/C (dose: 16.0 mg/kg/injection, schedule: Q08DX002 (ip), vehicle: saline): 122 % of control
T/C (dose: 18.0 mg/kg/injection, schedule: Q01DX009 (ip), vehicle: saline): 154 % of control and 168 % of control and 195 % of control
T/C (dose: 25.0 mg/kg/injection, schedule: Q04DX003 (ip), vehicle: saline): 175 % of control
T/C (dose: 32.0 mg/kg/injection, schedule: Q01DX009 (oral), vehicle: saline): 99 % of control
T/C (dose: 32.0 mg/kg/injection, schedule: Q01DX009 (sc), vehicle: saline): 105 % of control
T/C (dose: 32.0 mg/kg/injection, schedule: Q04DX003 (ip), vehicle: saline): 156 % of control
T/C (dose: 32.0 mg/kg/injection, schedule: Q04DX003 (oral), vehicle: saline): 105 % of control
T/C (dose: 32.0 mg/kg/injection, schedule: Q04DX003 (sc), vehicle: saline): 97 % of control
T/C (dose: 33.0 mg/kg/injection, schedule: Q04DX003 (ip), vehicle: saline): 150 % of control and 170 % of control
T/C (dose: 50.0 mg/kg/injection, schedule: Q04DX003 (ip), vehicle: saline): 175 % of control and 180 % of control
T/C (dose: 64.0 mg/kg/injection, schedule: Q01DX009 (oral), vehicle: saline): 102 % of control
T/C (dose: 64.0 mg/kg/injection, schedule: Q04DX003 (oral), vehicle: saline): 101 % of control
T/C (dose: 64.0 mg/kg/injection, schedule: Q04DX003 (sc), vehicle: saline): 101 % of control
T/C (dose: 75.0 mg/kg/injection, schedule: Q04DX003 (ip), vehicle: saline): 165 % of control
T/C (dose: 128.0 mg/kg/injection, schedule: Q01DX009 (oral), vehicle: saline): 107 % of control
T/C (dose: 128.0 mg/kg/injection, schedule: Q04DX003 (oral), vehicle: saline): 101 % of control
T/C (dose: 256.0 mg/kg/injection, schedule: Q04DX003 (oral), vehicle: saline): 100 % of control

CCCCCCCCCCCCCCCCNc1cccc2ccccc12
T/C (dose: 100.0 mg/kg/injection, schedule: Q04DX003 (ip), vehicle: saline sonified): 86 % of control
T/C (dose: 200.0 mg/kg/injection, schedule: Q04DX003 (ip), vehicle: saline sonified): 104 % of control
T/C (dose: 400.0 mg/kg/injection, schedule: Q04DX003 (ip), vehicle: saline sonified): 95 % of control

O=C(CNC(=O)n1ccnc1)N/N=C/c1ccccc1O
T/C (dose: 50.0 mg/kg/injection, schedule: Q01DX005 (ip), vehicle: saline with Tween-80): 102 % of control
T/C (dose: 100.0 mg/kg/injection, schedule: Q01DX005 (ip), vehicle: saline with Tween-80): 98 % of control
T/C (dose: 200.0 mg/kg/injection, schedule: Q01DX005 (ip), vehicle: saline with Tween-80): 100 % of control

CN(N)c1ccccc1
T/C (dose: 6.25 mg/kg/injection, schedule: Q04DX003 (ip), vehicle: saline with Tween-80): 93 % of control
T/C [2]: 95 % of control
T/C [3]: 90 % of control
T/C [4]: 104 % of control and 105 % of control
T/C (dose: 100.0 mg/kg/injection, schedule: Q04DX003 (ip), vehicle: saline with Tween-80): 113 % of control
T/C (dose: 200.0 mg/kg/injection, schedule: Q04DX003 (ip), vehicle: saline with Tween-80): 123 % of control

O=C(O)c1ccc(C(=O)c2ccccc2C(=O)O)cc1
T/C (dose: 100.0 mg/kg/injection, schedule: Q01DX001 (ip), vehicle: Klucel (hydroxypropylcellulose) (HPC)): 95 % of control
T/C [5]: 91 % of control
T/C (dose: 100.0 mg/kg/injection, schedule: Q04DX003 (ip), vehicle: Klucel (hydroxypropylcellulose) (HPC)): 104 % of control
T/C (dose: 200.0 mg/kg/injection, schedule: Q01DX001 (ip), vehicle: Klucel (hydroxypropylcellulose) (HPC)): 100 % of control
T/C [6]: 95 % of control
T/C (dose: 200.0 mg/kg/injection, schedule: Q04DX003 (ip), vehicle: Klucel (hydroxypropylcellulose) (HPC)): 104 % of control
T/C (dose: 400.0 mg/kg/injection, schedule: Q01DX001 (ip), vehicle: Klucel (hydroxypropylcellulose) (HPC)): 95 % of control
T/C [7]: 91 % of control
T/C (dose: 400.0 mg/kg/injection, schedule: Q04DX003 (ip), vehicle: Klucel (hydroxypropylcellulose) (HPC)): 109 % of control

CSc1ncc(CO)c(N)n1
T/C [5]: 91 % of control
T/C [6]: 95 % of control
T/C [7]: 87 % of control

CC1(C)N=C(N)N=C(N)N1c1cccc(CCCCc2cccc(S(=O)(=O)F)c2)c1
T/C (dose: 1.5 mg/kg/injection, schedule: Q04DX003 (ip), vehicle: saline): 118 % of control
T/C (dose: 4.0 mg/kg/injection, schedule: Q04DX003 (ip), vehicle: saline with Tween-80): 109 % of control
T/C (dose: 6.0 mg/kg/injection, schedule: Q04DX003 (ip), vehicle: saline with Tween-80): 113 % of control
T/C [1]: 108 % of control
T/C (dose: 9.0 mg/kg/injection, schedule: Q04DX003 (ip), vehicle: saline with Tween-80): 118 % of control
T/C (dose: 12.5 mg/kg/injection, schedule: Q01DX009 (ip), vehicle: saline): 116 % of control
T/C (dose: 25.0 mg/kg/injection, schedule: Q01DX009 (ip), vehicle: saline): 116 % of control

CCCCCCCCCCCCNC
T/C [2]: 104 % of control
T/C [3]: 109 % of control
T/C [4]: 100 % of control

Cc1c(Br)c(=O)n(-c2ccccc2)n1C
T/C (dose: 12.5 mg/kg/injection, schedule: Q01DX009 (ip), vehicle: Klucel (hydroxypropylcellulose) (HPC)): 106 % of control
T/C (dose: 25.0 mg/kg/injection, schedule: Q01DX009 (ip), vehicle: Klucel (hydroxypropylcellulose) (HPC)): 98 % of control
T/C (dose: 50.0 mg/kg/injection, schedule: Q01DX009 (ip), vehicle: Klucel (hydroxypropylcellulose) (HPC)): 100 % of control and 106 % of control
T/C [5]: 106 % of control

Cc1ncc(CO)c(C)c1O
T/C (dose: 12.5 mg/kg/injection, schedule: Q01DX010 (ip), vehicle: saline): 100 % of control
T/C (dose: 25.0 mg/kg/injection, schedule: Q01DX010 (ip), vehicle: saline): 100 % of control
T/C (dose: 50.0 mg/kg/injection, schedule: Q01DX010 (ip), vehicle: saline): 100 % of control
T/C (dose: 100.0 mg/kg/injection, schedule: Q01DX010 (ip), vehicle: saline): 100 % of control
